Assay results taken from ChEMBL document CHEMBL1123898, “Antitumor imidazotetrazines. 14. Synthesis and antitumor activity of 6- and 8-substituted imidazo[5,1-d]-1,2,3,5-tetrazinones and 8-substituted pyrazolo[5,1-d]-1,2,3,5-tetrazinones” (1987).

Columns and labels:
Type in all cases: functional
[1] = Antitumor activity was assessed against TLX5 tumors in CBA/CA mouse by inoculation of 2 x 10e5 tumor cells through subcutaneous route and mean death of animals (treated/control) was reported at 40 mg/kg dose
[2] = Antitumor activity was assessed against TLX5 tumors in CBA/CA mouse by inoculation of 2 x 10e5 tumor cells through subcutaneous route and mean death of animals (treated/control) was reported at 20 mg/kg ip dose
[3] = Antitumor activity was assessed against TLX5 tumors in CBA/CA mouse by inoculation of 2 x 10e5 tumor cells through subcutaneous route and mean death of animals (treated/control) was reported at 160 mg/kg dose
[4] = Antitumor activity was assessed against TLX5 tumors in CBA/CA mouse by inoculation of 2 x 10e5 tumor cells through subcutaneous route and mean death of animals (treated/control) was reported at 10 mg/kg ip dose
[5] = Antitumor activity was assessed against TLX5 tumors in CBA/CA mouse by inoculation of 2 x 10e5 tumor cells through subcutaneous route and mean death of animals (treated/control) was reported at 80 mg/kg dose
[6] = tested on: L1210; test: Antitumor activity was assessed against L1210 tumors in B6D2F1 mouse by inoculation of 10e5 tumor cells through intravenous route and mean death of animals (treated/control) was reported at 200 mg/kg peroral dose; conditions: route oral
[7] = tested on: L1210; test: Antitumor activity was assessed against L1210 tumors in B6D2F1 mouse by inoculation of 10e5 tumor cells through intravenous route and mean death of animals (treated/control) was reported at 50 mg/kg peroral dose; conditions: route oral
[8] = tested on: L1210; test: Antitumor activity was assessed against L1210 tumors in B6D2F1 mouse by inoculation of 10e5 tumor cells through intravenous route and mean death of animals (treated/control) was reported at 100 mg/kg peroral dose; conditions: route oral
[9] = tested on: L1210; test: Antitumor activity was assessed against L1210 tumors in B6D2F1 mouse by inoculation of 10e5 tumor cells through iv route and mean death of animals (treated/control) was reported at 50 mg/kg po dose
[10] = tested on: L1210; test: Antitumor activity was assessed against L1210 tumors in B6D2F1 mouse by inoculation of 10e5 tumor cells through iv route and mean death of animals (treated/control) was reported at 200 mg/kg po dose
[11] = tested on: L1210; test: Antitumor activity was assessed against L1210 tumors in B6D2F1 mouse by inoculation of 10e5 tumor cells through iv route and mean death of animals (treated/control) was reported at 100 mg/kg po dose
[12] = tested on: L1210; test: Antitumor activity was assessed against L1210 tumors in B6D2F1 mouse by inoculation of 10e5 tumor cells through iv route and mean death of animals (treated/control) was reported at 80 mg/kg po dose
[13] = tested on: L1210; test: Antitumor activity was assessed against L1210 tumors in B6D2F1 mouse by inoculation of 10e5 tumor cells through iv route and mean death of animals (treated/control) was reported at 40 mg/kg po dose
[14] = tested on: L1210; test: Antitumor activity was assessed against L1210 tumors in B6D2F1 mouse by inoculation of 10e5 tumor cells through iv route and mean death of animals (treated/control) was reported at 160 mg/kg po dose
[15] = Antitumor activity was assessed against TLX5 tumors in CBA/CA mouse by inoculation of 2 x 10e5 tumor cells through sc route and mean death of animals (treated/control) was reported at 160 mg/kg dose; conditions: route subcutaneous
[16] = Antitumor activity was assessed against TLX5 tumors in CBA/CA mouse by inoculation of 2 x 10e5 tumor cells through sc route and mean death of animals (treated/control) was reported at 80 mg/kg dose; conditions: route subcutaneous
[17] = Antitumor activity was assessed against TLX5 tumors in CBA/CA mouse by inoculation of 2 x 10e5 tumor cells through sc route and mean death of animals (treated/control) was reported at 20 mg/kg dose; conditions: route subcutaneous
[18] = Antitumor activity was assessed against TLX5 tumors in CBA/CA mouse by inoculation of 2 x 10e5 tumor cells through sc route and mean death of animals (treated/control) was reported at 320 mg/kg dose; conditions: route subcutaneous

N#Cc1ncn2c(=O)n(CCCl)nnc12
T/C [1]: 102% | T/C [2]: 102% | T/C [3]: 80% | T/C [4]: 96% | T/C [5]: 104%

NC(=O)c1nc(Cc2ccccc2)n2c(=O)n(CCCl)nnc12
T/C [6]: 127% | T/C [7]: 105% | T/C [8]: 114%

CC(C)c1nc(C(N)=O)c2nnn(CCCl)c(=O)n12
T/C [9]: 100% | T/C [10]: 137% | T/C [11]: 104%

CCCCc1nc(C(N)=O)c2nnn(CCCl)c(=O)n12
T/C [12]: 113% | T/C [13]: 100% | T/C [14]: 147%

O=c1n(CCCl)nnc2c([N+](=O)[O-])ncn12
T/C [6]: 98% | T/C [7]: 98% | T/C [8]: 98%

O=c1n(CCCl)nnc2c(-c3ccccc3)ncn12
T/C [6]: 100% | T/C [7]: 100% | T/C [8]: 100%

O=c1n(CCCl)nnc2c([N+](=O)[O-])cnn12
T/C [6]: 101% | T/C [7]: 101% | T/C [8]: 100%

COc1ccc(CNS(=O)(=O)c2ncn3c(=O)n(CCCl)nnc23)cc1
T/C [15]: 123% | T/C [16]: 151% | T/C [17]: 113% | T/C [18]: 109%
